Test results: publication doi:10.1101/2025.07.03.662851v1 (biorxiv, 2025)

Target: T1, recombinant wild-type human asparagine synthetase (ASNS) (Homo sapiens, UniProt P08243)
T1 sequence (P08243 2-561): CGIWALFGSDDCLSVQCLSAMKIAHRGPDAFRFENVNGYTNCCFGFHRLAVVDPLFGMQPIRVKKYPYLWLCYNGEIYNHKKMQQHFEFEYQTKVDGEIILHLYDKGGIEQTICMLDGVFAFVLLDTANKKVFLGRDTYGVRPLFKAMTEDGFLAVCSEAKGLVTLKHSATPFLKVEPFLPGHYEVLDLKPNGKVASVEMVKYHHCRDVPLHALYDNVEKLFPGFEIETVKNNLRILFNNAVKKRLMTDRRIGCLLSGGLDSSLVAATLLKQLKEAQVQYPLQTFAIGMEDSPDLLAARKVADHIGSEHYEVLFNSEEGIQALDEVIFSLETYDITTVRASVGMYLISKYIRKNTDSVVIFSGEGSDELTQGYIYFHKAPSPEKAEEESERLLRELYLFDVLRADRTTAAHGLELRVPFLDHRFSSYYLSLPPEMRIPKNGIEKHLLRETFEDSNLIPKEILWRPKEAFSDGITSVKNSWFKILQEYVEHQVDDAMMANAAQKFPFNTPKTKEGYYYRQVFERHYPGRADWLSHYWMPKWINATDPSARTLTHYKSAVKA
Assay: PPi production, continuous NADH-coupled assay
Assay type: biochemical

## CC[C@H](N)C(=O)N1C[C@@H](c2ccc(F)cc2)[C@H](O)[C@@H]1C(=O)NC(c1ccccc1)c1ccccc1 [ASX-173]
  Ki: 0.4 nM
